Experimental data as given in US20220380347A1, “INHIBITORS OF CYSTEINE PROTEASES AND METHODS OF USE THEREOF” (Pardes Biosciences, Inc., priority 2020, published 2022).
Like-named read-outs stand apart in the source and are kept apart here.

Experiments:
229E Mpro = 229E Mpro (Human coronavirus 229E, UniProt P0C6X1); experiment: 229E Mpro enzymatic assay (standard methods, SARS-CoV2 Mpro assay given as exemplary); type: biochemical, human coronavirus (HCov) 229E
Summary of the method: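 Run by standard methods, with the SARS-CoV-2 Mpro protocol given as the model: E. coli-expressed C-His6 protease at 25 nM and substrate at 25 μM (Km 13.5 μM). Buffer pH 7.3 with 5 mM TCEP and 0.1% BSA; % inhibition versus controls fitted to variable-slope log(inhibitor)-response for IC50.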

[1] = biological target: COVID-19 (nCoV-2019, SARS-CoV2) Mpro (Severe acute respiratory syndrome coronavirus 2, UniProt P0DTD1); experiment: COVID-19 (nCoV-2019, SARS-CoV2) Mpro enzymatic assay; type: biochemical; details: 25 nM Mpro, 25 μM substrate; read-out: COVID-19 Mpro IC50
HCov OC43 = experiment: HCoV OC43 cytopathic effect (CPE) assay, CellTiter Glo; type: cell-based, human coronavirus (HCov) OC43
[2] = read-out: OC43 IC50 (uM) MEDIAN, median
[3] = Betacoronavirus 1, OC43, read-out: OC43 IC50 (uM) MEDIAN, median

Chain of 229E Mpro (P0C6X1 2966-3267): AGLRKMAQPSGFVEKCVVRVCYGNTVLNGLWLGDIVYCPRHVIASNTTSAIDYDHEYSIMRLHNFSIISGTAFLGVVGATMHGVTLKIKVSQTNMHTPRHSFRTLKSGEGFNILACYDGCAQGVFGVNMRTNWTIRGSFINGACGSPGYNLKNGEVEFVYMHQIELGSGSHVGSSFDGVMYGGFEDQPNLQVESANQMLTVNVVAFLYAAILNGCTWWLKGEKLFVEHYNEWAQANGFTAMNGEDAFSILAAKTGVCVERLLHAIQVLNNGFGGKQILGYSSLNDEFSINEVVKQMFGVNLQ

SMILES	EC50 (229E Mpro; 229E Mpro EC50) [nM]	IC50 [1] [nM]	IC50 (HCov OC43; read-out: OC43 IC50 (uM) MEDIAN, median, listed as 1161 Isomer 4) [µM]	IC50 (HCov OC43; [2]) [µM]	IC50 (HCov OC43; [3]) [µM]	EC50 (229E Mpro; read-out: 229E Mpro EC50) [nM]
CN1CC(C(=O)N(c2ccc(S(F)(F)(F)(F)F)cc2)C(C(=O)NC2CCC(F)(F)CC2)c2cncc(F)c2)N(C#N)CC1=O (single isomer, unassigned) [Compound 1161 Isomer 4, 1-cyano-N-[2-[(4,4-difluorocyclohexyl)amino]-1-(5-fluoro-3-pyridyl)-2-oxo-ethyl]-4-methyl-5-oxo-N-[4-(pentafluoro-λ6-sulfanyl)phenyl]piperazine-2-carboxamide]	2000 to 10000	2000 to 10000	2 to 10			
CO[C@@H]1C[C@H](C(=O)N(c2ccc(S(F)(F)(F)(F)F)cc2)C(C(=O)N2CCCC3(COC3)C2)c2cccnc2)N(C#N)C1 (single isomer, unassigned) [Compound 1175]	< 2000	2000 to 10000		< 2		
CO[C@@H]1C[C@H](C(=O)N(c2ccc(S(F)(F)(F)(F)F)cc2)C(C(=O)NC2C[C@@H](C)O[C@@H](C)C2)c2cccnc2)N(C#N)C1 (single isomer, unassigned) [Compound 1185]	< 2000	< 2000			< 2	
CO[C@@H]1C[C@H](C(=O)N(c2ccc(S(F)(F)(F)(F)F)cc2)C(C(=O)NC2CCC(F)(F)CC2)c2cnccc2C)N(C#N)C1 (single isomer, unassigned) [Compound 1199]	< 2000	< 2000		< 2		
CC(C(=O)NC1CCC(F)(F)CC1)(c1cccnc1)N(C(=O)[C@H]1[C@@H]2C[C@@H]2CN1C#N)c1ccc(S(F)(F)(F)(F)F)cc1 (single isomer, unassigned) [Compound 1251 Isomer 1]		2000 to 10000			2 to 10	< 2000
CC(C(=O)NC1CCC(F)(F)CC1)(c1cccnc1)N(C(=O)[C@H]1[C@@H]2C[C@@H]2CN1C#N)c1ccc(S(F)(F)(F)(F)F)cc1 (single isomer, unassigned) [Compound 1251 Isomer 2]	< 2000	< 2000		< 2		
CO[C@@H]1C[C@H](C(=O)N(c2ccc(C3CC3)cc2F)C(C(=O)NC2CCC(F)(F)CC2)c2cnccc2C(F)(F)F)N(C#N)C1 (single isomer, unassigned) [Compound 1309 Isomer 1]	< 2000	< 2000			< 2	
CO[C@@H]1C[C@H](C(=O)N(c2ccc(C3CC3)cc2F)C(C(=O)NC2CCC(F)(F)CC2)c2cnccc2C(F)(F)F)N(C#N)C1 (single isomer, unassigned) [Compound 1309 Isomer 2]		2000 to 10000		2 to 10		< 2000
N#CN1CCOC[C@@H]1C(=O)N(c1ccc(C2CC2)cc1F)C(C(=O)NC1CCC(F)(F)CC1)c1cnccc1C(F)(F)F (single isomer, unassigned) [Compound 1313 Isomer 1]	< 2000	< 2000			< 2	
N#CN1CCOC[C@@H]1C(=O)N(c1ccc(C2CC2)cc1F)C(C(=O)NC1CCC(F)(F)CC1)c1cnccc1C(F)(F)F (single isomer, unassigned) [Compound 1313 Isomer 2]		2000 to 10000		2 to 10		< 2000
CC(C)(C#N)C(=O)N(c1ccc(S(F)(F)(F)(F)F)cc1)C(C(=O)NC1CCC(F)(F)CC1)c1cncc(F)c1 (single isomer, unassigned) [Compound 1316 Isomer 1, 2-cyano-N-[2-[(4,4-difluorocyclohexyl)amino]-1-(5-fluoro-3-pyridyl)-2-oxo-ethyl]-2-methyl-N-[4-(pentafluoro-λ6-sulfanyl)phenyl]propanamide]	10000 to 30000	> 30000			> 30	
CC(C)(C#N)C(=O)N(c1ccc(S(F)(F)(F)(F)F)cc1)C(C(=O)NC1CCC(F)(F)CC1)c1cncc(F)c1 (single isomer, unassigned) [Compound 1316 Isomer 2, 2-Cyano-N-[2-[(4,4-difluorocyclohexyl)amino]-1-(5-fluoro-3-pyridyl)-2-oxo-ethyl]-2-methyl-N-[4-(pentafluoro-λ6-sulfanyl)phenyl]propanamide]	> 30000	> 30000		> 30		
N#CN1C[C@H]2C[C@H]2[C@@H]1C(=O)N(c1ccc(S(F)(F)(F)(F)F)cc1)C(C(=O)NC1CCC(F)(F)CC1)c1cnccc1C(F)(F)F (single isomer, unassigned) [Compound 1318 Isomer 1]	< 2000	< 2000			< 2	
N#CN1C[C@H]2C[C@H]2[C@@H]1C(=O)N(c1ccc(S(F)(F)(F)(F)F)cc1)C(C(=O)NC1CCC(F)(F)CC1)c1cnccc1C(F)(F)F (single isomer, unassigned) [Compound 1318 Isomer 2]		< 2000		< 2		< 2000
CC(C)(C)c1ccc(N(C(=O)[C@H]2CCCN2C#N)C(C(=O)NCc2ccccn2)c2cccnc2)cc1 (stereo partly drawn) [Compound 443]	< 2000	2000 to 10000			10 to 30	
CN(C)CCCNC(=O)C(c1cccnc1)N(C(=O)[C@H]1CCCN1C#N)c1ccc(C(C)(C)C)cc1 (stereo partly drawn) [Compound 455]	< 2000	2000 to 10000			10 to 30	
CC(C)(C)c1ccc(NC2(C#N)CCCc3ccncc32)cc1 (stereo not drawn) [Compound 690a]	> 30000	> 30000			> 30	
N#CC1(Nc2ccc(S(F)(F)(F)(F)F)cc2)CCCc2ccncc21 (stereo not drawn) [Compound 690b]	> 30000	> 30000			> 30	
C[C@]1(O)CN[C@@H](C(=O)N(c2ccc(S(F)(F)(F)(F)F)cc2)C(C(=O)NC2CCC(F)(F)CC2)c2cnnc3ccccc23)C1 (stereo partly drawn) [Compound 711a]	< 2000	< 2000			< 2	
CC(C)(C)c1ccc(N(C(=O)[C@H]2C[C@@H](O)CN2C#N)C(C(=O)NC2CCCCC2)c2cccnc2)c(Cl)c1 (stereo partly drawn) [Compound 775, (2R,4R)—N-(4-(tert-butyl)-2-chlorophenyl)-1-cyano-N-(2-(cyclohexylamino)-2-oxo-1-(pyridin-3-yl)ethyl)-4-hydroxypyrrolidine-2-carboxamide]	2000 to 10000	10000 to 30000			> 30	
N#CN1CC(=O)NC[C@@H]1C(=O)N(c1ccc(S(F)(F)(F)(F)F)cc1)C(C(=O)NC1CCOCC1)c1cccnc1 (stereo partly drawn) [Compound 811, 1-cyano-5-oxo-N-[2-oxo-1-(3-pyridyl)-2-(tetrahydropyran-4-ylamino)ethyl]-N-[4-(pentafluoro-λ^6-sulfanyl)phenyl]piperazine-2-carboxamide]	< 2000	< 2000			< 2	
CN1C[C@H](C(=O)N(c2ccc(S(F)(F)(F)(F)F)cc2)C(C(=O)NC2CCOCC2)c2cccnc2)N(C#N)CC1=O (stereo partly drawn) [Compound 813]	< 2000	< 2000			< 2	
CC(C)(C)c1ccc(N(C(=O)C2NCC[C@H]2F)C(C(=O)NC2CCCCC2)c2cccnc2)cc1 (stereo partly drawn) [Compound 853]	2000 to 10000	2000 to 10000			2 to 10	
CC(C)(C)c1ccc(N(C(=O)[C@H]2CCCN2C#N)C(C(=O)N2CC(=O)C2)c2cccnc2)cc1 (stereo partly drawn) [Compound 946b, (2R)—N-(4-(tert-butyl)phenyl)-1-cyano-N-(2-oxo-2-(3-oxoazetidin-1-yl)-1-(pyridin-3-yl)ethyl)pyrrolidine-2-carboxamide]	2000 to 10000	10000 to 30000			10 to 30	
CC(C)(C)c1ccc(N(C(=O)[C@H]2CCCN2C#N)C(C(=O)N2CC(O)C2)c2cccnc2)cc1 (stereo partly drawn) [Compound 950, (2R)—N-(4-(tert-butyl)phenyl)-1-cyano-N-(2-(3-hydroxyazetidin-1-yl)-2-oxo-1-(pyridin-3-yl)ethyl)pyrrolidine-2-carboxamide]	2000 to 10000	2000 to 10000			10 to 30	
CC(C)(C)OC(=O)N1CCN(C(=O)C(c2cccnc2)N(C(=O)[C@H]2CCCN2C#N)c2ccc(C(C)(C)C)cc2)CC1 (stereo partly drawn) [Compound 954b]	2000 to 10000	2000 to 10000			2 to 10	
CN1CN(C(=O)C(c2cccnc2)N(C(=O)[C@H]2CCCN2C#N)c2ccc(C(C)(C)C)cc2)CC1=O (stereo partly drawn) [Compound 962, (2R)—N-(4-(tert-butyl)phenyl)-1-cyano-N-(2-(3-methyl-4-oxoimidazolidin-1-yl)-2-oxo-1-(pyridin-3-yl)ethyl)pyrrolidine-2-carboxamide]	2000 to 10000	10000 to 30000			10 to 30	
CC(C)(C)c1ccc(N(C(=O)[C@H]2CCCN2C#N)C(C(=O)N2CCC(N)CC2)c2cccnc2)cc1 (stereo partly drawn) [Compound 966]	> 30000	> 30000			> 30	
